Data: patent EP2876156A1 (COMMISSARIAT A L'ENERGIE ATOMIQUE ET AUX ENERGIES …, priority 2013, dated 2015)

Experiments:
Assay type in all cases: biochemical
ENZ3 SEQ ID NO:3 = biological target: T1, ENZ3 SEQ ID NO:3 (Chitinophaga pinensis, UniProt C7PLM6); assay: Enzymatic hydroxylation of L-lysine, 10 mL scale, conversion by HPLC (protocol A); conditions: printed 'with ENZ1'; protocol lists ENZ3 0.031 mg/mL; otherwise as ENZ1 protocol (L-lysine 10 mM, room temperature, 18h)
T1 construct: His6 (hexahistidine, inserted after the initial methionine) (N); made in house; host or cells: E. coli BL21(DE3) plysE
T1 sequence (C7PLM6 1-382): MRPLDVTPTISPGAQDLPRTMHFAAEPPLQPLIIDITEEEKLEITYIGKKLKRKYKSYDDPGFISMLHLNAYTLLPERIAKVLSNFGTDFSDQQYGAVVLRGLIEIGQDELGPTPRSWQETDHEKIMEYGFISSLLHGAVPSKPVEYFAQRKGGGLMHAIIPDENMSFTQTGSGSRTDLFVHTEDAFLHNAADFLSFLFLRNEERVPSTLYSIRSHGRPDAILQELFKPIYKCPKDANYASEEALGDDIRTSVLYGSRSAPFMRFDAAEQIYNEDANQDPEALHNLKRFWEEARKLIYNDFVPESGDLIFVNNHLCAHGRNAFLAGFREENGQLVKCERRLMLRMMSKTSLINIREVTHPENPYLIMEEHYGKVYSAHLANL
Protocol: (§1) Enzymatic reaction medium (0.2 µmole, leq.), borate buffer 0,2M pH 7.7 (80 µL) and Fmoc-Cl solution7.5 mM in acetone (100 µL, 0.75 µmole, 3.75 eq) were hand shaked in a closed 1.50 mL eppendorf for one minute. The aqueous layer was extracted with petroleum ether (3*1 mL) to eliminate excess of Fmoc-Cl. 70 µL of the aqueous phase were withdrawn, diluted with 70 µL of acetonitrile and injected into the HPLC. For substrates with two amine functions, 100 µL of Fmoc-Cl solution 15 mM were used.
(§2) Conditions for HPLC analysis: Atlantis® T3 (3 µm 4.5*150 mm) at 35°C with the gradient 50-86% eluent B (MeCN + 0.1% TFA) and eluent A (H2O + 0.1% TFA) in 20 min at 1 mL/min.
(§3) Enzymatic reaction was carried out in 250 mL glass erlenmeyer flask for a total volume of 4*10 mL. […] The conversion of L-lysine into 3-hydroxy-L-lysine (94%) was determined by HPLC after derivatization with Fmoc-Cl according to protocol A.
(§4) The protocol used was the same as that described above for the hydroxylation by ENZ1 except that the enzyme concentrations used were different (ENZ2: 0.086 mg/mL; ENZ3: 0.031 mg/mL). Conversions were determined by HPLC after derivatization with Fmoc-Cl according to protocol A as described above. […]

ENZ2 (SEQ ID NO:2) = biological target: T2, ENZ2 (SEQ ID NO:2) (Flavobacterium johnsoniae, UniProt A5FF23); assay: as above; conditions: with ENZ2 0.086 mg/mL; otherwise as ENZ1 protocol (L-lysine 10 mM, room temperature, 18h)
T2 construct: His6 (hexahistidine, inserted after the initial methionine) (N); made in house; host or cells: E. coli BL21(DE3) plysE
Protocol: as §1, §2, §3, §4

ENZ1 (SEQ ID NO:1) = biological target: T3, ENZ1 (SEQ ID NO:1) (Catenulispora acidiphila, UniProt C7QJ42); assay: as above; conditions: ENZ1 0.024 mg/mL, L-lysine 10 mM, α-ketoglutarate 15 mM, sodium ascorbate 2.5 mM, Fe(II) 1 mM, Hepes pH 7.50, room temperature, 18h
T3 construct: His6 (hexahistidine, inserted after the initial methionine) (N); made in house; host or cells: E. coli BL21(DE3) plysE
T3 sequence (C7QJ42 1-358): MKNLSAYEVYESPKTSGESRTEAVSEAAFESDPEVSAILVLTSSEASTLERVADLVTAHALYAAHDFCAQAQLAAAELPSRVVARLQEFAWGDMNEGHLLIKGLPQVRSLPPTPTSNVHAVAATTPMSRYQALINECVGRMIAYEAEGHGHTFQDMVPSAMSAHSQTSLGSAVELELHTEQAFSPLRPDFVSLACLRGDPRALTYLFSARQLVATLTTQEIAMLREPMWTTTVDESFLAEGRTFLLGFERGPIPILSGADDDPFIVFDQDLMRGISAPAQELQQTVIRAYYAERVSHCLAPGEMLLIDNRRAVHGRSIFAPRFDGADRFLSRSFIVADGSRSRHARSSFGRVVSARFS
Protocol: as §1, §2
Enzymatic reaction was carried out in 250 mL glass erlenmeyer flask for a total volume of 4*10 mL. Water (4.8 mL), Hepes buffer 1M pH 7.50 (0.5 mL, 50 mM), L-lysine 50 mM (2 mL, 10 mM), α-ketoglutarate 150 mM (1 mL, 15 mM), sodium ascorbate 100 mM (0.25 mL, 2.5 mM), ammonium Iron(II) sulfate hexahydrate 10 mM (1 mL, 1 mM) were poured into the erlenmeyer flask. The reaction was started by the enzyme addition (0.53 mg/mL, 0.45 mL, final concentration 0.024 mg/mL). The reaction mixture was orbitally shaken (300 rpm) at room temperature for 18h. The conversion of L-lysine into 3-hydroxy-L-lysine (94%) was determined by HPLC after derivatization with Fmoc-Cl according to protocol A.

ENZ6 (SEQ ID NO:10) = biological target: T4, ENZ6 (SEQ ID NO:10) (Flavobacterium sp., UniProt J3BZS6); assay: Hydroxylation capability, HPLC analysis of reaction media after derivatization
T4 construct: His6 (hexahistidine, inserted after the initial methionine) (N); made in house; host or cells: E. coli BL21(DE3) plysE
Protocol: (§5) Enzymes (0.08 mg/mL) were screened against substrates (molar ratio α-ketoglutarate/substrate 15/10) in Hepes buffer 50 mM pH 7,5, with Mohr's salt at 1mM and without sodium ascorbate, at room temperature for three hours. The potential conversions of the substrates were determined by HPLC after Fmoc-Cl derivatization as section III here above.
(§6) The hydroxylation capability of two other enzymes, namely ENZ6 (SEQ ID NO:10) and ENZ5 (SEQ ID NO:9) were also assessed. The amino sequence of ENZ6 has 79% of amino acid identity with SEQ ID NO:2 of ENZ2 while the amino sequence of ENZ5 has 72% of amino acid identity with SEQ ID NO:3 of ENZ3. […] As shown in part VI, ENZ6 and ENZ5 provide (4R)-hydroxy-L-lysine from L-lysine similarly to ENZ2 and ENZ3. Thus ENZ6 and ENZ5 are likely to have the same substrate selectivity and provide similar products as ENZ2 and ENZ3.

ENZ5 (SEQ ID NO:9) = biological target: T5, ENZ5 (SEQ ID NO:9) (Niastella koreensis, UniProt G8T8D0); assay: as above
T5 construct: His6 (hexahistidine, inserted after the initial methionine) (N); made in house; host or cells: E. coli BL21(DE3) plysE
T5 sequence (G8T8D0 1-371): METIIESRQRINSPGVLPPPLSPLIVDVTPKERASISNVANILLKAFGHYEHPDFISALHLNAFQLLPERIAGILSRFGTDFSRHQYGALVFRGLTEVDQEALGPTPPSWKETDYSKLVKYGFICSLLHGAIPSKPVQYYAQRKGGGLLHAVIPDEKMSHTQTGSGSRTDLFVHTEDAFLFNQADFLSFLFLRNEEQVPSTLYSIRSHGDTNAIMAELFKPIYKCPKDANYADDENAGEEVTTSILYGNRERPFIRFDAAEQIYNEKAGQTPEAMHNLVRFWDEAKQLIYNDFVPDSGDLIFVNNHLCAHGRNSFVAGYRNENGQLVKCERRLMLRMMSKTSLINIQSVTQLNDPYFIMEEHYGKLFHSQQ
Protocol: as §5, §6

T4 sequence (J3BZS6 whole entry): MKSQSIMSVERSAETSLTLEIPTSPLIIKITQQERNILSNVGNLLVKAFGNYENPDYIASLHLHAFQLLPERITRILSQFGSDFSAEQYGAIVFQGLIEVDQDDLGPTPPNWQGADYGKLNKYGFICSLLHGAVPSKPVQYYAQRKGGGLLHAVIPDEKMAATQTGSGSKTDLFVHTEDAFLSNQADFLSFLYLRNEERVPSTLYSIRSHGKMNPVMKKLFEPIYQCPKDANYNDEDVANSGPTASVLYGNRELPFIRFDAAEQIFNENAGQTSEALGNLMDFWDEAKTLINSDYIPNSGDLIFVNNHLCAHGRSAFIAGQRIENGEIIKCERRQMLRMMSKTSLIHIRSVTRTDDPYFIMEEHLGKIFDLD
T2 sequence (A5FF23 whole entry): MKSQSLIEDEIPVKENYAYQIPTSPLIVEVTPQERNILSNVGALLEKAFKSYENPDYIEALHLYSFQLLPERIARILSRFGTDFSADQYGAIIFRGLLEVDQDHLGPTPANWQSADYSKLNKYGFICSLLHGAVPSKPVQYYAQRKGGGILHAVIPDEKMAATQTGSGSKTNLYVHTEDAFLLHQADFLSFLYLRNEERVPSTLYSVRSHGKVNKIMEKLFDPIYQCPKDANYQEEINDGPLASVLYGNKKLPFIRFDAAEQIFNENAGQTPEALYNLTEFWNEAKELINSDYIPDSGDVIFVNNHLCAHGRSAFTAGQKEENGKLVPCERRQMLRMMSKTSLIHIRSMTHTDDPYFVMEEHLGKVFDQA

NCCCC[C@H](N)C(=O)O [L-lysine]
conversion of L-lysine into (4R)-hydroxy-L-lysine (ENZ3 SEQ ID NO:3): 96%
conversion of L-lysine into (4R)-hydroxy-L-lysine (ENZ2 (SEQ ID NO:2)): 91%
conversion of L-lysine into 3-hydroxy-L-lysine (ENZ1 (SEQ ID NO:1)): 94%
hydroxylation capability of ENZ6 (ENZ6 (SEQ ID NO:10)): capable of hydroxylating
hydroxylation capability of ENZ5 (ENZ5 (SEQ ID NO:9)): capable of hydroxylating
